Measured values reported in publication PMC7985170, “Marine Peptide-N6NH2 and Its Derivative-GUON6NH2 Have Potent Antimicrobial Activity Against Intracellular Edwardsiella tarda in vitro and in vivo” (Frontiers in Microbiology, 2021).
≈ marks a conversion by molar mass, not a printed value. Where a SMILES comes first, the peptide text is derived from it. Bridges are numbered along the chain shown (N, C = ends).

Key:
[1] = type: cell-based, Streptococcus enteritidis
Experimental: (§1) The antimicrobial activity of peptides was determined by the microbroth dilution method ([Zhang et al., 2014]). The bacterial strains were incubated in Mueller-Hinton (MH) medium at 28°C or 37°C overnight. Bacteria (1 × 10^5 CFU/mL) were added into 96-well plates, followed by the addition of serial dilutions of peptides (from 0.0625 to 128 μg/mL). The plates were incubated at 37°C for 18–24 h. The minimal inhibitory concentration (MIC) value was determined as the lowest peptide concentration at which no bacterial growth was observed.

[2] = tested on: inner membrane of E. tarda; experiment: Inner membrane penetration, PI staining by flow cytometry; type: cell-based, Edwardsiella tarda; conditions: 1× MIC, 5–30 min at 37°C, 1 × 10^8 CFU/mL
Experimental: Mid-log phase E. tarda cells (1 × 10^8 CFU/mL) were incubated with or without 1× MIC peptides solutions at 37°C for 5, 15, and 30 min, respectively. After washing twice with PBS, bacterial cells were then incubated with 50 μg/mL propidium iodide (PI) for 15 min and analyzed using a FACS Calibur Flow Cytometer (BD, United States) ([Stearns-Kurosawa et al., 2011]).

E. coli CVCC1515 = type: cell-based, Escherichia coli
Experimental: as §1

E. coli CVCC25922 = type: cell-based, Escherichia coli
Experimental: as §1

S. aureus ATCC25923 = type: cell-based, Staphylococcus aureus
Experimental: as §1

S. aureus ATCC546 = type: cell-based, Staphylococcus aureus
Experimental: as §1

murine erythrocytes = type: cell-based, mouse
Experimental: The hemolysis of peptides was evaluated by determining the amount of hemoglobin that was released from fresh mouse erythrocytes ([Flamm et al., 2019]). The blood cells were washed three times with 10 mM PBS (pH 7.4) and centrifuged for 10 min (1,500 rpm). Erythrocyte solution (8%, v/v) was mixed with peptide solutions (1:1) and incubated for 1 h at 37°C. The mixture was then centrifuged for 5 min (1,500 rpm), and the absorbance of supernatants was measured at 540 nm. Values of 0 and 100% hemolysis were determined in PBS and 0.1% triton X-100, respectively. The hemolysis of peptides was calculated using the following formula: Hemolysis (%) = [(Abs treated sample – Abs negative control)/(Abs positive control – Abs negative control)] × 100.

S. typhimurium ATCC14028 = type: cell-based, Salmonella typhimurium
Experimental: as §1

E. tarda [3] = experiment: SEM and TEM morphology; type: cell-based, Edwardsiella tarda; conditions: 4× MIC, 2 h
Experimental: To further characterize the bactericidal effects of the peptides, scanning electron microscopy (SEM) and transmission electron microscopy (TEM) were used to visualize morphological changes ([Yang et al., 2019]). E. tarda was cultured to logarithmic growth stage (10^8 CFU/mL) and diluted with 0.01 M PBS (pH 7.4) to OD600 nm = 1. E. tarda cells were treated with 4× MIC peptides at 37°C for 2 h and the untreated cells were used as the control. Briefly, after centrifugation, the bacterial cells were washed three times with 0.1 M PBS (pH 7.2) and fixed overnight at 4°C with 2.5% glutaraldehyde. After washing again, the cells were fixed with 1% osmium tetroxide (OsO4) for 2 h and dehydrated in a graded ethanol series (50%–70%–85%–95% × 2–100%, × 2) for 15 min, respectively. The samples were then dried by CO2, sputtered with gold-palladium, and observed on a QUANTA200 SEM (FEI, Philips, Netherlands).
E. tarda cells were treated peptides before fixation as described above. The bacteria were washed with 0.01 M PBS (pH 7.4) for five times, 7 min each time, and fixed with 1% osmium acid buffer (4°C) for 1 h. After dehydration with a graded acetone series (30%–50%–70%–85%–95%–100% × 3), the cells were immersed in mixtures of acetone and resin (3:1, 1:1 and 1:3, respectively) for 40 min and in a pure epoxy resin overnight. The samples were then embedded in embedding medium and polymerized at 45°C for 3 h and at 65°C for 24 h, respectively. The sections were prepared using an ultramicrotome, stained with 1% uranyl acetate, and visualized by a JEM1400 (JEDL, Tokyo, Japan).

S. pullorum CVCC1789 = type: cell-based, Salmonella pullorum
Experimental: as §1

[4] = tested on: Staphylococcus hyicus 437-2; type: cell-based
Experimental: as §1

[5] = tested on: Salmonella pullorum CVCC1802; type: cell-based
Experimental: as §1

[6] = tested on: Salmonella typhimurium CVCC533; type: cell-based; conditions: murium CVCC533
Experimental: as §1

Escherichia coli CVCC195 = type: cell-based
Experimental: as §1

Edwardsiella tarda = type: cell-based
Experimental: as §1

[7] = tested on: Staphylococcus aureus ATCC43300; type: cell-based
Experimental: as §1

Gram-negative bacteria = experiment: Geometric mean of MICs and therapeutic index; type: cell-based; conditions: for GM Gram-negative bacteria: geometric mean (GM) of MICs against Gram-negative bacteria; for TI Gram-negative bacteria: therapeutic index (TI), cell selectivity
Experimental: as §1
(§2) The geometric mean (GM) of MICs of peptides against Gram-negative and Gram-positive bacteria was calculated, and the result was shown in Table 3. […] For Gram-negative bacteria, the TI value of GUON6NH2 (53.33) was very close to N6NH2 (58.18), while for positive bacteria, the TI value of GUON6NH2 (12.8) was slightly higher than that of N6NH2 (12.31), indicating their huge therapeutic potential. For Gram-positive bacteria, DN6NH2 had the highest TI value and the best therapeutic potential.

[8] = tested on: Gram-negative and Gram-positive bacteria (ALL); experiment: Geometric mean of MICs and therapeutic index; type: cell-based; conditions: for GM ALL: geometric mean (GM) of MICs, all strains; for TI ALL: therapeutic index (TI), cell selectivity
Experimental: as §1, §2

Gram-positive bacteria = experiment: Geometric mean of MICs and therapeutic index; type: cell-based; conditions: for GM Gram-positive bacteria: geometric mean (GM) of MICs against Gram-positive bacteria; for TI Gram-positive bacteria: therapeutic index (TI), cell selectivity
Experimental: as §1, §2

LPS = LPS binding, BODIPY-TR-cadaverine (BC) probe displacement; conditions: 0.5 μM LPS, 5 μM BC, Tris buffer pH 7.4; peptides 0.049 to 50 μM
Experimental: The BODIPY’-TR-cadaverine (BC) probe was used to determine the ability of peptides to bind to LPS ([Wang et al., 2020]). 0.5 μM LPS was incubated with 5 μM BC in […] Tris buffer (pH 7.4) for 4 h at 37°C. Subsequently, the peptides were added into the mixture and the final concentrations of peptides ranged from 0.049 to 50 μM. Ampicillin was used as the negative control. Changes in fluorescence were measured by a fluorescence spectrophotometry at room temperature (excitation/emission, 580/620 nm).

S. hyicus 15095 = type: cell-based, Staphylococcus hyicus
Experimental: as §1

E. tarda [9] = experiment: Time-killing curve; type: cell-based, Edwardsiella tarda; conditions: 2× or 4× MIC, MHB, 1 × 10^5 CFU/mL, 28°C
Experimental: Time-killing curve of peptides was performed according to the previous method ([Flamm et al., 2019]). E. tarda was cultured to logarithmic phase, diluted in Mueller Hinton broth (MHB) (1 × 10^5 CFU/mL) containing 1×, 2×, or 4× MIC of peptides, and cultured at 28°C (200 rpm). PBS was added as a control. Bacterial samples (100 μL) were removed at different time intervals (0, 0.5, 1, 1.5, 2, 4, 6, 8, 10, 12, 22, and 24 h) and were counted on MH solid plates. The time-killing curves of peptides were plotted. Bacterial cells treated with 2× MIC norfloxacin and without treatment were used as the positive and blank controls, respectively.

| SMILES | MIC [1] | penetration rate (PI-stained cells) [2] | MIC (E. coli CVCC1515) | MIC (E. coli CVCC25922) | MIC (S. aureus ATCC25923) | MIC (S. aureus ATCC546) | MHC (murine erythrocytes) | MIC (S. typhimurium ATCC14028) | MIC (S. pullorum CVCC1789) | MIC [4] | MIC [5] | MIC [6] | MIC (Escherichia coli CVCC195) | MIC (Edwardsiella tarda) | MIC [7] | GM Gram-negative bacteria (Gram-negative bacteria) | TI Gram-negative bacteria (Gram-negative bacteria) | GM ALL [8] | TI ALL [8] | ability to bind to LPS (BC probe displacement) (LPS) | other results |
| --- | --- | --- | --- | --- | --- | --- | --- | --- | --- | --- | --- | --- | --- | --- | --- | --- | --- | --- | --- | --- | --- |
| CC(C)[C@H]1NC(=O)CNC(=O)[C@@H](CC(N)=O)NC(=O)[C@@H](CCCNC(=N)N)NC(=O)[C@@H](Cc2ccc(O)cc2)NC(=O)[C@@H](C(C)C)NC(=O)[C@H](NC(=O)[C@H](NC(=O)[C@@H](CC(N)=O)NC(=O)[C@@H](Cc2c[nH]c3ccccc23)NC(=O)[C@@H](C)NC(=O)[C@@H](Cc2ccccc2)NC(=O)CN)C(C)C)CSSC[C@H](C(=O)N[C@H](Cc2c[nH]cn2)C(=O)N[C@H](CCCNC(=N)N)C(=O)N[C@H](CCCNC(=N)N)C(=O)N[C@H](C)C(=O)N[C@H](CC(N)=O)C(N)=O)NC(=O)[C@@H](C(C)C)NC(=O)[C@@H](CCCNC(=N)N)NC1=O [DN6NH2] | 2 µg/mL (≈ 0.808 µM) | 1.3–16.1% | 4 µg/mL (≈ 1.62 µM) | 8 µg/mL (≈ 3.23 µM) | 8 µg/mL (≈ 3.23 µM) | 16 µg/mL (≈ 6.46 µM) | >128 µg/mL | 8 µg/mL (≈ 3.23 µM) | 16 µg/mL (≈ 6.46 µM) | 8 µg/mL (≈ 3.23 µM) | 8 µg/mL (≈ 3.23 µM) | 16 µg/mL (≈ 6.46 µM) | 8 µg/mL (≈ 3.23 µM) | 8 µg/mL (≈ 3.23 µM) | 4 µg/mL (≈ 1.62 µM) | 8.2 µg/mL | 31.22 | 8.13 µg/mL | 31.49 | V112N6NH2 > GUON6NH2 > N6NH2 > DN6NH2 > N6PNH2 | morphological changes by SEM (E. tarda [3]): no significant change in the bacterial cell structures; GM Gram-positive bacteria (Gram-positive bacteria): 8 µg/mL; TI Gram-positive bacteria (Gram-positive bacteria): 32; MIC (S. hyicus 15095): 4 µg/mL (≈ 1.62 µM) |
| CC(C)[C@H](N)C(=O)N[C@@H](Cc1ccccc1)C(=O)N[C@@H](C)C(=O)N[C@@H](Cc1c[nH]c2ccccc12)C(=O)N[C@@H](CC(N)=O)C(=O)N[C@H](C(=O)N[C@H]1CSSC[C@@H](C(=O)N[C@@H](Cc2c[nH]cn2)C(=O)N[C@@H](CCCNC(=N)N)C(=O)N[C@@H](CCCNC(=N)N)C(=O)N[C@@H](C)C(=O)N[C@@H](CC(N)=O)C(N)=O)NC(=O)[C@H](C(C)C)NC(=O)[C@H](CCCNC(=N)N)NC(=O)[C@H](C(C)C)NC(=O)[C@H](C(C)C)NC(=O)[C@H](CC(N)=O)NC(=O)[C@H](CCCNC(=N)N)NC(=O)[C@H](Cc2ccc(O)cc2)NC(=O)[C@H](C(C)C)NC1=O)C(C)C [V112N6NH2] (H-VFAWNVCVYRNVVRVCHRRAN-NH2; disulfide 7-16 (inferred); N-terminus assumed) | 2 µg/mL (≈ 0.782 µM) | 0.85–30.1% | 4 µg/mL (≈ 1.56 µM) | 8 µg/mL (≈ 3.13 µM) | 32 µg/mL (≈ 12.5 µM) | 16 µg/mL (≈ 6.25 µM) | >128 µg/mL | 16 µg/mL (≈ 6.25 µM) | 16 µg/mL (≈ 6.25 µM) | 32 µg/mL (≈ 12.5 µM) | 8 µg/mL (≈ 3.13 µM) | 16 µg/mL (≈ 6.25 µM) | 8 µg/mL (≈ 3.13 µM) | 32 µg/mL (≈ 12.5 µM) | 32 µg/mL (≈ 12.5 µM) | 11.8 µg/mL | 21.69 | 16.4 µg/mL | 15.61 | V112N6NH2 > GUON6NH2 > N6NH2 > DN6NH2 > N6PNH2 | time to completely kill E. tarda (E. tarda [9]): ≤ 6 h; morphological changes by SEM (E. tarda [3]): some protrusions were observed on the cell surfaces; GM Gram-positive bacteria (Gram-positive bacteria): 25.6 µg/mL; TI Gram-positive bacteria (Gram-positive bacteria): 10; MIC (S. hyicus 15095): 16 µg/mL (≈ 6.25 µM) |
| CC1(C)S[C@@H]2[C@H](NC(=O)[C@H](N)c3ccccc3)C(=O)N2[C@H]1C(=O)O [ampicillin, Ampicillin, reference compound] | – | – | – | – | – | – | – | – | – | – | – | – | – | – | – | – | – | – | – | did not replace BC probe to bind to LPS | – |
| CC(C)[C@@H]1NC(=O)CNC(=O)[C@H](CC(N)=O)NC(=O)[C@H](CCCNC(=N)N)NC(=O)[C@H](Cc2ccc(O)cc2)NC(=O)[C@H](C(C)C)NC(=O)[C@@H](NC(=O)[C@@H](NC(=O)[C@H](CC(N)=O)NC(=O)[C@H](Cc2c[nH]c3ccccc23)NC(=O)[C@H](C)NC(=O)[C@H](Cc2ccccc2)NC(=O)CN)C(C)C)CSSC[C@@H](C(=O)N[C@@H](Cc2c[nH]cn2)C(=O)N[C@@H](CCCNC(=N)N)C(=O)N2CCC[C@H]2C(=O)N[C@@H](C)C(=O)N[C@@H](CC(N)=O)C(N)=O)NC(=O)[C@H](C(C)C)NC(=O)[C@H](CCCNC(=N)N)NC1=O [N6PNH2] (H-GFAWNVCVYRNGVRVCHRPAN-NH2; disulfide 7-16 (inferred); N-terminus assumed) | 2 µg/mL (≈ 0.828 µM) | 0.42–2.20% | 4 µg/mL (≈ 1.66 µM) | 8 µg/mL (≈ 3.31 µM) | >64 µg/mL | >64 µg/mL | >128 µg/mL | 16 µg/mL (≈ 6.62 µM) | 16 µg/mL (≈ 6.62 µM) | >64 µg/mL | 8 µg/mL (≈ 3.31 µM) | 32 µg/mL (≈ 13.2 µM) | 8 µg/mL (≈ 3.31 µM) | 32 µg/mL (≈ 13.2 µM) | >64 µg/mL | 13.4 µg/mL | 19.1 | 47.33 µg/mL | 5.41 | V112N6NH2 > GUON6NH2 > N6NH2 > DN6NH2 > N6PNH2 | GM Gram-positive bacteria (Gram-positive bacteria): 115.2 µg/mL; TI Gram-positive bacteria (Gram-positive bacteria): 2.22; MIC (S. hyicus 15095): 64 µg/mL (≈ 26.5 µM) |
